Test results as given in patent publication US10939901B2, “Customizable anchorage devices and methods of use” (TYRX, Inc., priority 2016, dated 2021).
Blank lines part the entries; values can stand above or below the compound they belong to.

What was measured:
myofibroblast formation = details: Ajmal et al. (2003); cited from earlier work
[1] = Stability of rifampin and minocycline in PBS with and without tranexamic acid; assay type: physicochemical
Method: To determine the stability of active pharmaceutical ingredients, such as, for example, one or more of active pharmaceutical ingredients 26 when combined with a hemostatic agent, such as, for example, one or more of hemostatic agents 24, mixtures of rifampin and minocycline were prepared in phosphate-buffered saline (PBS) with and without tranexamic acid (TXA). The mixtures were tested both at room temperature (RT) (about 23° C.) and at 37° C.

blood clotting = assay: Time required to induce blood clotting in vitro; assay type: biochemical
Method: Tests were conducted to compare the time required to induce blood clotting in vitro when different amounts of hemostatic agent is administered in the presence of TYRX (degradable mesh coated with P22-27.5 containing rifampin and minocycline), as shown in FIG. 23.
Tests were conducted to compare the time required for different hemostatic agents to induce blood clotting in vitro versus the time required to induce blood clotting in vitro when no hemostatic agent is administered. In particular, the time required to induce blood clotting was plotted for blood alone, TYRX, Surgicel, TYRX with 1.6 mg of TXA, 1.2 mg of TXA alone and TYRX with 200 mg of TXA. In this example, TYRX refers to a Glycoprene mesh that is coated with P22-27.5 (a polymer in the P22-X family) containing Rifampin and Minocycline.

[2] = In vitro elution of rifampin and minocycline from p22-27.5 polymers with TXA in the release media; assay type: physicochemical; details: PBS pH 7.4 without TXA, with TXA 0.05 mg/mL or 5 mg/mL, over 25 hours
Excerpt: To determine the elution of active pharmaceutical ingredients, such as, for example, one or more of active pharmaceutical ingredients 26 from a polymer, such as, for example, one of the polymers discussed herein, in vitro when the active pharmaceutical ingredients are combined with a hemostatic agent, such as, for example, one or more of hemostatic agents 24, in vitro elution of rifampin and minocycline from polymers in the p22-27.5 family containing different amounts of tranexamic acid was evaluated in a PBS buffer over 25 hours. B1=PBS pH 7.4; B2=PBS, pH 7.4+TXA (0.05 mg/mL); B3=PBS, pH 7.4+TXA (5 mg/mL).

Structure (SMILES): O=S(=O)([O-])CCS.[Na+] [MESNA, sodium 2-mercaptoethane sulfonate]
- myofibroblast formation (myofibroblast formation): diminish myofibroblast formation

Structure (SMILES): NC[C@H]1CC[C@H](C(=O)O)CC1 [tranexamic acid]
- effect on the stability of rifampin and minocycline ([1]; RT and 37° C.): does not negatively affect the stability of rifampin and minocycline
- Clotting time (blood clotting; higher amounts of TXA (1.6 mg TXA vs 200 mg of TXA) in the presence of TYRX): increased
- time required to induce blood clotting (blood clotting; in vitro, 1.2 mg of TXA alone): about 19 minutes

- elution rate from p22-27.5 polymer [2]: not affected by the presence of TXA
- percentage area of rifampin, mixtures with versus without tranexamic acid ([1]; RT (about 23° C.) and 37° C., regardless of the temperature): substantially the same
Structure (SMILES): CO[C@H]1/C=C/O[C@@]2(C)Oc3c(C)c(O)c4c(O)c(c(/C=N/N5CCN(C)CC5)c(O)c4c3C2=O)NC(=O)/C(C)=C\C=C\[C@H](C)[C@H](O)[C@@H](C)[C@@H](O)[C@@H](C)[C@H](OC(C)=O)[C@@H]1C [rifampin]
